From publication PMC9019904, “AD Informer Set: Chemical tools to facilitate Alzheimer's disease drug discovery” (Alzheimer's & Dementia : Translational Research & Clinical …, 2022)

Tests used:
[1] = test system: BV2 (mouse microglia) cell line; assay: pHrodo-myelin phagocytosis/cell viability high content imaging assay: phagocytosis signal; assay type: cell-based
Description: (§1) It is important to note that stressed cells, such as those that are dying, are prone to show an increase in phagocytosis. […] MerTK promotes phagocytosis and thus MerTK inhibition is proposed to lead to inhibition of phagocytosis.[47]
(§2) phagocytosis and cell viability simultaneously. High content imaging is performed with the
(§3) (approximately 22 hours after pHrodo-myelin addition). Three measurements are extracted
(§4) intensity increase (early apoptosis) and decrease (later apoptosis), respectively. These
and 3). […]

[2] = test system: HMC3 (human microglia) cell line; assay: pHrodo-myelin phagocytosis/cell viability high content imaging assay: viability (cell count, nuclear area, nuclear intensity)
Description: (§5) All AD Informer Set compounds were tested in two immortalized microglial cell lines, murine (BV2), and human (HMC3), in a high‐content imaging assay in duplicate by the Chu lab. Experimental details and all data can be found as supporting information files.
(§6) The role of microglia in AD has been well documented and was thus chosen as a cell type in which to profile the AD Informer Set.[43], [44], [45] As an example, neuroinflammation, as detected by the presence of activated complement proteins, interleukins, cytokines, and chemokines in microglia and astrocytes, is increased early in AD and is considered pathogenic due to its chronic nature.[33], [34] Cytotoxic effects can be assessed by considering multiple parameters.
(§7) Microglial viability and phagocytosis studies: The pHrodo-myelin phagocytosis/cell viability assay, modified based on a published method, was run with immortalized BV2 (mouse microglia) and HMC3 (human microglia) cell lines in the Chu lab at IUSM. The 384-well plate high content analysis assay with BV2 and HMC3 microglial cell lines is used to quantify both phagocytosis and cell viability simultaneously. High content imaging is performed with the ArrayScan automatic imaging system and imaging analysis done with the software on the system. After allowing cells to adhere overnight, they are treated with compounds for total 48 hours including final 20 hours seeded with pHrodo-myelin (labeled phagocytosis ligand, purified […]
(§8) (approximately 22 hours after pHrodo-myelin addition). Three measurements are extracted from the assay: 1) phagocytosis signal by mean total phagocytosis spot intensity per cell, 2) total cell counts per well as the main measurement of cell viability, and 3) mean average nuclear intensity per cell as profiling of cell health since apoptotic cells showing nuclear intensity increase (early apoptosis) and decrease (later apoptosis), respectively. These measurements allow for evaluation of compound-induced phagocytosis (1) and cytotoxicity (2 and 3). Assays were carried out at a single concentration (10 μM). Idelalisib (10 μM) and cytochalasin-D (4 μM) were used as positive controls in the assay. All data, which was an average of 2 data points, was normalized to untreated wells and reported as % control, which is included in the Supporting Information both as a raw data file and summarized in the compound/gene-annotation file.

[3] = test system: BV2 (mouse microglia) cell line; assay: as above
Description: as §5, §6, §7, §8

[4] = test system: HMC3 (human microglia) cell line; assay: pHrodo-myelin phagocytosis/cell viability high content imaging assay: phagocytosis signal; assay type: cell-based
Description: as §1, §2, §3, §4
and 3). […]

[5] = HMC3, compound 10 uM, 48 hours treatment
[6] = BV2, compound 10 uM, 48 hours treatment
[7] = HMC3, compound 10 uM, pHrodo-myelin
[8] = BV2, compound 10 uM, pHrodo-myelin
[9] = HMC3 cells, 10 uM compound, 48 hours treatment
[10] = BV2 cells, 10 uM compound, 48 hours treatment
[11] = HMC3 cells, 10 uM compound, 48 hours treatment, pHrodo-myelin final 20 hours
[12] = BV2 cells, 10 uM compound, 48 hours treatment, pHrodo-myelin final 20 hours

Cc1cc(O)cc2c1[C@]1(C)CC[C@H]3C(C)(C)CCC[C@]3(C)[C@H]1C2 [AQX-MN100]
Stimulation of mouse microglial phagocytosis at 10 μM (>150% control) ([1]; 10 μM, BV2): Y (The compound was found to stimulate phagocytosis (response threshold: >150% control) when murine immortalized microglial cells were dosed at 10 μM (Y: yes))

C=C1[C@@H](C)[C@H]2[C@H](Cc3ccccc3)NC(=O)[C@]23[C@H](OC(C)=O)/C=C/[C@@](C)(O)C(=O)[C@@H](C)C/C=C/[C@H]3[C@@H]1O [Cytochalasin-D]
1. Cell count (% control) ([2]; HMC3, control compound at 4uM): 57.1 % control | 2. Nuclear Area (% Control) ([2]; HMC3, control compound at 4uM): 76.9 % Control | 3. Nuclear DNA Intensity (% control) ([2]; HMC3, control compound at 4uM): 178.9 % control | 1. Cell count (% control) ([3]; BV2, control compound at 4uM): 9.1 % control | 2. Nuclear Area (% Control) ([3]; BV2, control compound at 4uM): 119.3 % Control | 3. Nuclear DNA Intensity (% control) ([3]; BV2, control compound at 4uM): 141.3 % control | 4. Phagocytosis (% control) ([4]; HMC3, control compound at 4uM, pHrodo-myelin): 4.8 % control | 4. Phagocytosis (% control) ([1]; BV2, control compound at 4uM, pHrodo-myelin): 18.4 % control

CC[C@H](Nc1ncnc2[nH]cnc12)c1nc2cccc(F)c2c(=O)n1-c1ccccc1 [Idelalisib]
1. Cell count (% control) [2, 5]: 61.4 % control | 2. Nuclear Area (% Control) [2, 5]: 105.8 % Control | 3. Nuclear DNA Intensity (% control) [2, 5]: 124.0 % control | 1. Cell count (% control) [3, 6]: 17.2 % control | 2. Nuclear Area (% Control) [3, 6]: 138.0 % Control | 3. Nuclear DNA Intensity (% control) [3, 6]: 108.4 % control | 4. Phagocytosis (% control) [4, 7]: 5.6 % control | 4. Phagocytosis (% control) [1, 8]: 107.9 % control

COc1ccc(/C=C/C(=O)c2ccc(OC)cc2OC)cc1 [Metochalcone]
Human microglial cytotoxicity at 10 μM (<70% control) ([2]; HMC3, 10 μM, cell count <70% control): Y (The compound was found to be cytotoxic (cell count threshold: <70% control) when human immortalized microglial cells were dosed at 10 μM (Y: yes)) | Stimulation of mouse microglial phagocytosis at 10 μM (>150% control) ([1]; BV2, 10 μM): Y (The compound was found to stimulate phagocytosis (response threshold: >150% control) when murine immortalized microglial cells were dosed at 10 μM (Y: yes))

C=C1C(=O)[C@]23[C@H](O)[C@H]1CC[C@H]2[C@@]12CO[C@]3(O)[C@@H](O)[C@@H]1C(C)(C)CC[C@@H]2O [Oridonin]
Human microglial cytotoxicity at 10 μM (<70% control) ([2]; 10 μM, HMC3): Y (The compound was found to be cytotoxic (cell count threshold: <70% control) when human immortalized microglial cells were dosed at 10 μM (Y: yes)) | Mouse microglial cytotoxicity at 10 μM (<70% control) ([3]; BV2): Y (The compound was found to be cytotoxic (cell count threshold: <70% control) when murine immortalized microglial cells were dosed at 10 μM (Y: yes)) | Inhibition of human microglial phagocytosis at 10 μM (<70% control) ([4]; HMC3): Y (The compound was found to inhibit phagocytosis (response threshold: <70% control) when human immortalized microglial cells were dosed at 10 μM (Y: yes)) | Stimulation of mouse microglial phagocytosis at 10 μM (>150% control) ([1]; 10 μM, BV2): Y (The compound was found to stimulate phagocytosis (response threshold: >150% control) when murine immortalized microglial cells were dosed at 10 μM (Y: yes))

O=c1ccc2c(OCCCCOc3ccccc3)c3ccoc3cc2o1 [PAP-1 (5-(4-Phenoxybutoxy)psoralen)]
Stimulation of mouse microglial phagocytosis at 10 μM (>150% control) ([1]; 10 μM, BV2): Y (The compound was found to stimulate phagocytosis (response threshold: >150% control) when murine immortalized microglial cells were dosed at 10 μM (Y: yes))

COc1cc([C@@H]2c3cc4c(cc3[C@H](O)[C@H]3COC(=O)[C@H]23)OCO4)cc(OC)c1OC [Podofilox]
Human microglial cytotoxicity at 10 μM (<70% control) ([2]; 10 μM, HMC3): Y (The compound was found to be cytotoxic (cell count threshold: <70% control) when human immortalized microglial cells were dosed at 10 μM (Y: yes)) | Mouse microglial cytotoxicity at 10 μM (<70% control) ([3]; BV2): Y (The compound was found to be cytotoxic (cell count threshold: <70% control) when murine immortalized microglial cells were dosed at 10 μM (Y: yes)) | Inhibition of human microglial phagocytosis at 10 μM (<70% control) ([4]; HMC3): Y (The compound was found to inhibit phagocytosis (response threshold: <70% control) when human immortalized microglial cells were dosed at 10 μM (Y: yes)) | Stimulation of mouse microglial phagocytosis at 10 μM (>150% control) ([1]; 10 μM, BV2): Y (The compound was found to stimulate phagocytosis (response threshold: >150% control) when murine immortalized microglial cells were dosed at 10 μM (Y: yes))

O=c1ccc2c(OCCCCc3ccccc3)c3ccoc3cc2o1 [Psora-4 (5-(4-Phenylbutoxy)psoralen)]
Inhibition of human microglial phagocytosis at 10 μM (<70% control) ([4]; HMC3): Y (The compound was found to inhibit phagocytosis (response threshold: <70% control) when human immortalized microglial cells were dosed at 10 μM (Y: yes)) | Stimulation of mouse microglial phagocytosis at 10 μM (>150% control) ([1]; 10 μM, BV2): Y (The compound was found to stimulate phagocytosis (response threshold: >150% control) when murine immortalized microglial cells were dosed at 10 μM (Y: yes))

CC/C(=C(\c1ccccc1)c1ccc(OCCN(C)C)cc1)c1ccccc1 [Tamoxifen]
Stimulation of mouse microglial phagocytosis at 10 μM (>150% control) ([1]; BV2, 10 μM): Y (The compound was found to stimulate phagocytosis (response threshold: >150% control) when murine immortalized microglial cells were dosed at 10 μM (Y: yes))

Clc1ccc(N/N=C(\c2ccccc2)c2ccccn2)nc1 [UNC3735A]
1. Cell count (% control) [2, 9]: 86.4 % control | 2. Nuclear Area (% Control) [2, 9]: 86.7 % Control | 3. Nuclear DNA Intensity (% control) [2, 9]: 135.7 % control | 1. Cell count (% control) [3, 10]: 27.9 % control | 2. Nuclear Area (% Control) [3, 10]: 119.6 % Control | 3. Nuclear DNA Intensity (% control) [3, 10]: 94.7 % control | 4. Phagocytosis (% control) [4, 11]: 104.5 % control | 4. Phagocytosis (% control) [1, 12]: 273.4 % control

Cn1nccc1Nc1nccc(-c2ccn([C@H](CO)c3ccc(Cl)c(F)c3)c(=O)c2)n1 [UNC8131A]
1. Cell count (% control) [2, 5]: 54.4 % control | 2. Nuclear Area (% Control) [2, 5]: 77.5 % Control | 3. Nuclear DNA Intensity (% control) [2, 5]: 167.5 % control | 1. Cell count (% control) [3, 6]: 15.3 % control | 2. Nuclear Area (% Control) [3, 6]: 134.5 % Control | 3. Nuclear DNA Intensity (% control) [3, 6]: 44.7 % control | 4. Phagocytosis (% control) [4, 7]: 12.1 % control | 4. Phagocytosis (% control) [1, 8]: 0.00107 % control

O=C(O)CCCc1nc(-c2ccc(Cl)c(Cl)c2)c(-c2ccccc2)o1 [UNC8366A]
1. Cell count (% control) [2, 5]: 151.8 % control | 2. Nuclear Area (% Control) [2, 5]: 102.0 % Control | 3. Nuclear DNA Intensity (% control) [2, 5]: 90.3 % control | 1. Cell count (% control) [3, 6]: 118.0 % control | 2. Nuclear Area (% Control) [3, 6]: 106.9 % Control | 3. Nuclear DNA Intensity (% control) [3, 6]: 102.3 % control | 4. Phagocytosis (% control) [4, 7]: 67.3 % control | 4. Phagocytosis (% control) [1, 8]: 161.9 % control

CCCCCCCCCCCCCCCCOCC(COCC(F)(F)F)OP(=O)([O-])OC.[Li+] (stereo not drawn) [UNC8441A]
1. Cell count (% control) [2, 5]: 76.1 % control | 2. Nuclear Area (% Control) [2, 5]: 97.9 % Control | 3. Nuclear DNA Intensity (% control) [2, 5]: 109.2 % control | 1. Cell count (% control) [3, 6]: 80.6 % control | 2. Nuclear Area (% Control) [3, 6]: 107.7 % Control | 3. Nuclear DNA Intensity (% control) [3, 6]: 98.9 % control | 4. Phagocytosis (% control) [4, 7]: 43.1 % control | 4. Phagocytosis (% control) [1, 8]: 99.7 % control

O=c1ccc2c(OCCCCc3ccccc3)c3ccoc3cc2o1 [UNC10100197A]
1. Cell count (% control) [2, 5]: 124.6 % control | 2. Nuclear Area (% Control) [2, 5]: 99.9 % Control | 3. Nuclear DNA Intensity (% control) [2, 5]: 93.8 % control | 1. Cell count (% control) [3, 6]: 106.2 % control | 2. Nuclear Area (% Control) [3, 6]: 106.9 % Control | 3. Nuclear DNA Intensity (% control) [3, 6]: 106.7 % control | 4. Phagocytosis (% control) [4, 7]: 60.7 % control | 4. Phagocytosis (% control) [1, 8]: 195.3 % control

CC(=O)O.Cc1c(-c2ccc(O)cc2)n(Cc2ccc(OCCN3CCCCCC3)cc2)c2ccc(O)cc12 [UNC10245115A]
4. Phagocytosis (% control) [4, 11]: 0.00872 % control | 4. Phagocytosis (% control) [1, 12]: 0.00966 % control

CC(C)CCOc1ccc(N)cc1 [UNC10302876A]
4. Phagocytosis (% control) [4, 11]: 89.8 % control | 4. Phagocytosis (% control) [1, 12]: 110.6 % control

O=C(NC12C[C@H]3C[C@@H](C1)C[C@@H](C2)C3)N[C@H]1CC[C@H](Oc2ccc(C(=O)O)cc2)CC1 [UNC10303108A]
4. Phagocytosis (% control) [4, 11]: 109.9 % control | 4. Phagocytosis (% control) [1, 12]: 153.6 % control

O=C(NC12C[C@H]3C[C@@H](C1)C[C@@H](C2)C3)N[C@H]1CC[C@H](Oc2ccc(C(=O)O)cc2)CC1 [t-AUCB]
Stimulation of mouse microglial phagocytosis at 10 μM (>150% control) ([1]; BV2, 10 μM): Y (The compound was found to stimulate phagocytosis (response threshold: >150% control) when murine immortalized microglial cells were dosed at 10 μM (Y: yes))
